# Key:
# Test in all cases: relative viability (nuclei count vs DMSO), 5 days (fraction); higher = more cells survive
# IU1-47 + Linsitinib = compound: CC1=CC(=C(N1C2=CC=C(C=C2)Cl)C)C(=O)CN3CCCCC3 [IU1-47] + C[C@]1(O)C[C@@H](c2nc(-c3ccc4ccc(-c5ccccc5)nc4c3)c3c(N)nccn32)C1 [Linsitinib] (partner 1 µM)
# Summary of the method: (§1)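 The day after seeding in 1536-well plates, lung cancer cell lines were treated by pin tool with a single drug, or with a fixed anchor-drug dose together with five library-drug doses (not always all listed) in √10 steps. After 5 days, a combined fix-and-stain solution (final 0.05% Triton X-100, 1% formaldehyde, 1 ug/ml Hoechst) was added. Nuclei counted on 4× images gave relative viability as treated counts over vehicle counts, reported as the median of duplicate plates.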
# IU1-47 + Crizotinib = compound: CC1=CC(=C(N1C2=CC=C(C=C2)Cl)C)C(=O)CN3CCCCC3 [IU1-47] + C[C@@H](Oc1cc(-c2cnn(C3CCNCC3)c2)cnc1N)c1c(Cl)ccc(F)c1Cl [Crizotinib] (partner 1 µM)
# Summary of the method: as §1
# FG-4592 + Pictilisib = compound: Cc1nc(C(=O)NCC(=O)O)c(O)c2ccc(Oc3ccccc3)cc12 [FG-4592] + CS(=O)(=O)N1CCN(Cc2cc3nc(-c4cccc5[nH]ncc45)nc(N4CCOCC4)c3s2)CC1 [Pictilisib] (partner 1 µM)
# Summary of the method: as §1
# IU1-47 + Foretinib = compound: CC1=CC(=C(N1C2=CC=C(C=C2)Cl)C)C(=O)CN3CCCCC3 [IU1-47] + COc1cc2c(Oc3ccc(NC(=O)C4(C(=O)Nc5ccc(F)cc5)CC4)cc3F)ccnc2cc1OCCCN1CCOCC1 [Foretinib] (partner 0.25 µM)
# Summary of the method: as §1
Cell Line,relative viability (IU1-47 + Linsitinib; first compound 0.08 µM),relative viability (IU1-47 + Linsitinib; first compound 0.253 µM),relative viability (IU1-47 + Linsitinib; first compound 0.8 µM),relative viability (IU1-47 + Linsitinib; first compound 2.53 µM),relative viability (IU1-47 + Linsitinib; first compound 8 µM),relative viability (IU1-47 + Crizotinib; first compound 0.08 µM),relative viability (IU1-47 + Crizotinib; first compound 0.253 µM),relative viability (IU1-47 + Crizotinib; first compound 0.8 µM),relative viability (IU1-47 + Crizotinib; first compound 2.53 µM),relative viability (IU1-47 + Crizotinib; first compound 8 µM),relative viability (FG-4592 + Pictilisib; first compound 0.08 µM),relative viability (FG-4592 + Pictilisib; first compound 0.253 µM),relative viability (FG-4592 + Pictilisib; first compound 0.8 µM),relative viability (FG-4592 + Pictilisib; first compound 2.53 µM),relative viability (FG-4592 + Pictilisib; first compound 8 µM),relative viability (IU1-47 + Foretinib; first compound 0.08 µM),relative viability (IU1-47 + Foretinib; first compound 0.253 µM),relative viability (IU1-47 + Foretinib; first compound 0.8 µM),relative viability (IU1-47 + Foretinib; first compound 8 µM),relative viability (IU1-47 + Foretinib; first compound 2.53 µM)
NCI-H2087,0.947,0.953,0.93,1.14,1,1.01,0.83,0.947,1.04,0.806,0.934,0.707,0.903,0.809,0.836,1.26,1.14,1.31,1.18,
NCI-H1437,1.11,1.02,0.959,1.01,0.704,0.909,0.952,0.81,0.926,0.795,0.447,0.437,0.337,0.37,0.269,1.31,1.29,1.28,1.2,1.22
NCI-H650,0.831,0.966,0.924,0.796,0.875,0.685,0.788,0.695,0.71,0.648,0.879,0.916,0.739,0.801,0.872,1.06,1.01,1.02,1.07,0.881
COR-L23,0.943,1,0.943,0.899,0.982,0.735,0.704,0.669,0.817,0.609,0.812,0.617,0.849,0.685,0.728,1.14,1.09,1.08,1.16,1.02
COR-L 105,1.02,0.875,1.08,1.03,0.89,0.793,0.839,0.767,0.94,0.627,0.372,0.326,0.328,0.266,0.318,0.907,1.14,1.22,1.4,1.2
LK-2,0.742,0.697,0.592,0.335,0.416,0.204,0.223,0.223,0.213,0.255,,0.638,,0.64,0.475,1.8,1.82,1.78,0.943,0.89
201T,1.05,1.02,1.06,,1.11,1.08,1.04,1.05,,1.04,0.642,0.644,0.584,0.695,0.675,1.31,1.22,1.26,1.09,1.05
NCI-H596,1.17,1.11,1.02,0.984,0.934,1.01,1.07,1.04,0.95,0.943,0.337,0.359,,0.377,0.433,0.893,0.82,0.806,0.761,0.87
H3255,1.16,1.17,0.957,0.905,0.914,0.989,1.07,0.908,0.778,0.807,0.396,0.472,0.51,0.44,0.5,0.858,0.958,1.44,0.832,0.368
NCI-H647,1.22,1.2,1.12,1.19,1.01,1.01,1.22,0.99,1.07,0.561,,0.395,,0.452,0.53,1.12,1.36,,1.34,1.25
NCI-H2023,0.701,0.686,0.665,0.617,0.611,0.663,0.67,0.645,0.78,0.581,0.203,0.202,0.143,0.205,0.196,0.75,0.722,1,0.719,
NCI-H23,0.607,0.741,0.686,0.665,0.533,0.533,0.528,0.506,0.638,0.48,0.365,0.433,0.486,0.449,0.398,0.91,1.14,1.04,1.03,1.17
NCI-H1944,1.23,1.2,1.13,,1.1,1.15,1.21,1.08,,1.09,0.3,0.336,0.294,0.356,0.363,1.03,0.954,0.905,0.759,0.824
NCI-H520,0.849,1.13,0.934,0.974,0.666,0.815,0.984,0.627,0.8,0.499,0.269,0.293,0.225,0.291,0.258,0.785,0.866,0.698,0.651,1.15
A549,0.548,0.691,0.608,,0.553,0.685,0.847,0.607,0.612,0.579,0.488,0.455,0.452,0.489,0.456,0.9,1.09,0.983,0.889,1.08
NCI-H460,1.21,1.1,0.986,0.665,0.559,0.955,1.1,1.05,0.861,1.46,0.236,0.367,0.314,0.466,0.381,1.09,1.04,1.26,1.15,0.86
EKVX,1.19,1.18,0.943,1.1,0.861,0.981,1.14,1.05,0.892,0.793,0.395,0.377,0.478,0.428,0.441,1.12,1.19,0.769,0.85,0.265

Cell Line,relative viability (IU1-47 + Linsitinib; first compound 0.08 µM),relative viability (IU1-47 + Linsitinib; first compound 0.253 µM),relative viability (IU1-47 + Linsitinib; first compound 0.8 µM),relative viability (IU1-47 + Linsitinib; first compound 2.53 µM),relative viability (IU1-47 + Linsitinib; first compound 8 µM),relative viability (IU1-47 + Crizotinib; first compound 0.08 µM),relative viability (IU1-47 + Crizotinib; first compound 0.253 µM),relative viability (IU1-47 + Crizotinib; first compound 0.8 µM),relative viability (IU1-47 + Crizotinib; first compound 2.53 µM),relative viability (IU1-47 + Crizotinib; first compound 8 µM),relative viability (FG-4592 + Pictilisib; first compound 0.08 µM),relative viability (FG-4592 + Pictilisib; first compound 0.253 µM),relative viability (FG-4592 + Pictilisib; first compound 0.8 µM),relative viability (FG-4592 + Pictilisib; first compound 2.53 µM),relative viability (FG-4592 + Pictilisib; first compound 8 µM),relative viability (IU1-47 + Foretinib; first compound 0.08 µM),relative viability (IU1-47 + Foretinib; first compound 0.253 µM),relative viability (IU1-47 + Foretinib; first compound 0.8 µM),relative viability (IU1-47 + Foretinib; first compound 8 µM),relative viability (IU1-47 + Foretinib; first compound 2.53 µM)
NCI-H358,0.737,0.791,0.75,,0.703,0.532,0.607,0.516,,0.495,0.323,0.344,0.289,0.292,0.326,0.828,0.628,0.863,0.658,0.652
EPLC-272H,1.24,1.27,1.4,,1.16,0.957,0.918,0.862,,0.984,0.276,0.26,0.28,0.37,0.434,0.659,0.775,0.764,0.606,
NCI-H1563,1.22,1.05,1.19,1.07,1.14,0.877,0.791,0.882,0.86,0.802,0.655,0.624,0.657,0.648,0.669,0.855,0.988,0.967,0.864,0.886
NCI-H2126,0.733,0.76,0.74,0.531,0.778,1.08,1.08,1.03,0.813,0.972,0.487,0.483,0.449,0.511,0.531,1.28,1.17,1.22,1.03,0.723
LXF-289,0.984,0.998,1.02,0.954,0.954,0.854,0.858,0.82,0.796,0.817,0.776,0.696,0.822,0.708,0.769,1.01,1.06,1.1,0.902,0.967
NCI-H2009,1.19,1.19,1.13,1.24,1.24,1,1.1,0.933,1.1,1.05,0.718,0.653,0.647,0.671,0.749,1.24,1.25,1.18,1.23,1.22
NCI-H2405,1.02,1.1,1.01,,0.932,0.901,0.837,0.778,0.878,0.836,,0.266,0.348,0.419,0.427,1.13,1.11,1,1.07,1.05
NCI-H1755,1.03,1.03,1.06,1.05,0.962,0.883,0.927,0.899,0.895,0.756,0.303,0.4,0.306,0.442,0.444,0.932,0.926,0.961,0.934,0.973
HCC-78,0.555,0.506,0.521,0.474,0.417,0.334,0.358,0.336,0.324,0.386,0.219,0.248,0.182,0.222,0.225,0.608,0.57,0.615,0.606,0.551
LOU-NH91,1.07,1.06,0.939,0.907,0.868,0.739,0.808,0.733,0.708,0.769,0.456,0.51,0.509,0.545,0.554,0.988,1,0.903,0.966,0.891
IA-LM,0.526,0.407,0.655,0.741,0.604,,0.974,0.942,1.1,0.644,0.358,0.291,0.308,0.295,0.201,1.02,1.12,0.936,1,1.17
NCI-H3122,1,1.07,1.08,1.15,1.01,0.277,0.27,0.295,0.269,0.241,0.735,0.57,0.511,0.583,0.605,,0.94,1.02,0.976,1.07
HCC-827,0.99,0.92,0.941,1.01,0.963,0.89,0.955,1.01,0.961,0.904,1.05,1.04,1.07,0.875,0.834,1.15,1.12,0.998,1.01,1.02
SK-LU-1,1.16,1.08,1.32,1.16,1.17,0.975,0.912,0.963,0.996,0.814,0.436,0.418,0.582,0.55,0.428,0.855,0.752,0.879,0.868,0.852
NCI-H1975,1.06,1.17,1.11,0.98,0.752,1.04,1.01,1,1.01,0.845,0.284,0.266,0.259,0.253,0.244,0.967,0.949,0.971,0.858,1.1
NCI-H1703,0.516,0.707,0.416,0.671,0.886,0.524,0.917,0.426,1.15,1.11,0.271,0.236,0.218,0.253,0.245,0.342,0.315,0.278,0.361,0.377

# Reference: the supplement of paper PMC10307832
